Experimental data reported in ChEMBL document CHEMBL5634080, “Synthesis, biological evaluation and docking studies of silicon incorporated diarylpyrroles as MmpL3 inhibitors: An effective strategy towards development of potent anti-tubercular agents” (Eur J Med Chem, 2023).
Values after ≈ are worked out from the molar mass of the structure shown.

Experiments:
[1] = Solubility of the compound at 5 mM at pH 7.4 by HPLC analysis; type: physicochemical; conditions: buffer
[2] = Solubility of the compound at 5 mM at pH 10.2 by HPLC analysis; type: physicochemical; conditions: buffer
[3] = Metabolic stability in human liver microsomes at 50 uM measured after 30 mins by LC-MS/MS analysis; type: ADME, Microsome; conditions: read-out: Stability
[4] = Solubility of the compound at 5 mM at pH 1.2 by HPLC analysis; type: physicochemical; conditions: buffer
[5] = system: Mycobacterium tuberculosis; test: Antitubercular activity against Mycobacterium tuberculosis H37Rv assessed as inhibition of bacterial growth incubated for 6 days by Alamar Blue based assay; type: functional; conditions: 144 h, time 6 day
[6] = Metabolic stability in mouse liver microsomes at 50 uM measured after 30 mins by LC-MS/MS analysis; type: ADME, Microsome; conditions: read-out: Stability
[7] = Solubility of the compound at 5 mM at pH 4.5 by HPLC analysis; type: physicochemical; conditions: buffer
[8] = Solubility of the compound at 5 mM at pH 2.2 by HPLC analysis; type: physicochemical; conditions: buffer
[9] = system: Mycobacterium tuberculosis; test: Antitubercular activity against Mycobacterium tuberculosis H37Rv; type: functional
[10] = Protein binding in human plasma at 150 uM by equilibrium dialysis method; type: ADME, cell-free; conditions: read-out: PPB (converted)
[11] = Metabolic stability in human plasma at 50 uM measured after 60 mins by LC-MS/MS analysis; type: ADME, cell-free; conditions: read-out: Stability
[12] = Cytotoxicity against mouse primary astrocytes assessed as reduction in cell viability measured after 24 hrs by MTT assay; type: toxicity, cell-based, Astrocyte
HEK293 = test: Cytotoxicity against HEK293 cells assessed as reduction in cell viability at >45 uM measured after 24 hrs by MTT assay; type: toxicity, cell-based; conditions: human, hek293, 24 h
[13] = Selectivity index, ratio of IC50 for cytotoxicity against HEK293 cells to MIC for antitubercular activity against Mycobacterium tuberculosis H37Rv; type: toxicity, cell-based; conditions: human, read-out: Ratio IC50
[14] = Selectivity index, ratio of IC50 for cytotoxicity against mouse primary astrocytes cells to MIC for antitubercular activity against Mycobacterium tuberculosis H37Rv; type: toxicity, cell-based; conditions: read-out: Ratio IC50

`Cc1c(CN2CCN(C)CC2)cc(-c2ccc(Cl)cc2)n1-c1ccc(Cl)cc1` showed a solubility at 5000 µM [1] of 26.7 µM (≈ 11.1 µg/mL), a solubility at 5000 µM [2] of 5.38 µM (≈ 2.23 µg/mL) and a remaining at 0.5 h, 50 µM [3] of 79.8%. The solubility at 5000 µM [4] was 45.2 µM (≈ 18.7 µg/mL), the MIC [5] was 1.7 µM (≈ 0.704 µg/mL) and the remaining at 0.5 h, 50 µM [6] was 62.4%. For the same compound, the solubility at 5000 µM [7] was 36.7 µM (≈ 15.2 µg/mL) and the solubility at 5000 µM [8] was 42.2 µM (≈ 17.5 µg/mL).

Compound `C[Si]1(C)CCN(Cc2cc(-c3ccc(Cl)cc3)n(-c3ccc(Cl)cc3)n2)CC1` has an MIC [9] of 0.07 µM (≈ 0.0301 µg/mL).

For `CSc1ccc(-c2c(CN3CC[Si](C)(C)CC3)cc(C)n2-c2ccc(F)cc2)cc1`, the MIC [5] was 3.6 µM (≈ 1.58 µg/mL).

`CCc1ccc(-n2c(C)cc(CN3CC[Si](C)(C)CC3)c2-c2ccc(OC)cc2)cc1` showed an MIC [5] of 23.1 µM (≈ 10 µg/mL).

`CCc1ccc(-n2c(-c3ccc(Cl)cc3)cc(CN3CC[Si](C)(C)CC3)c2C)cc1` gave a fraction unbound at 150 µM [10] of 0.0002, a solubility at 5000 µM [1] of 1.19 µM (≈ 0.52 µg/mL) and a remaining at 1 h, 50 µM [11] of 95.7%. It also gave a solubility at 5000 µM [2] of 12.9 µM (≈ 5.65 µg/mL), an IC50 at 24 h [12] greater than 20 µM and a remaining at 0.5 h, 50 µM [3] of 60.8%. For the same compound, the Activity (HEK293) was “Non-Toxic”, the selectivity ratio [13] was greater than 250 and the solubility at 5000 µM [4] was 9.86 µM (≈ 4.31 µg/mL). For the same compound, the MIC [5] was 0.1 µM (≈ 0.0437 µg/mL), the selectivity ratio [14] was greater than 250 and the remaining at 0.5 h, 50 µM [6] was 75.5%. The solubility at 5000 µM [7] was 32.6 µM (≈ 14.3 µg/mL) and the solubility at 5000 µM [8] was 37.2 µM (≈ 16.3 µg/mL).

`Cc1ccc(-c2cc(CN3CC[Si](C)(C)CC3)c(C)n2-c2ccc(F)cc2)cc1` showed a fraction unbound at 150 µM [10] of 0.0009, a solubility at 5000 µM [1] of 26.8 µM (≈ 10.9 µg/mL) and a remaining at 1 h, 50 µM [11] of 96.9%. The solubility at 5000 µM [2] was 3.13 µM (≈ 1.27 µg/mL), the IC50 at 24 h [12] was greater than 20 µM and the remaining at 0.5 h, 50 µM [3] was 36.4%. For the same compound, the Activity (HEK293) was “Non-Toxic”, the selectivity ratio [13] was greater than 250 and the solubility at 5000 µM [4] was 43.7 µM (≈ 17.8 µg/mL). For the same compound, the MIC [5] was 0.1 µM (≈ 0.0407 µg/mL), the selectivity ratio [14] was greater than 250 and the remaining at 0.5 h, 50 µM [6] was 45.1%. It also gave a solubility at 5000 µM [7] of 42.6 µM (≈ 17.3 µg/mL) and a solubility at 5000 µM [8] of 42.1 µM (≈ 17.1 µg/mL).

Work on `CCc1ccc(-n2c(-c3ccc(OC)cc3)cc(CN3CC[Si](C)(C)CC3)c2C)cc1` yielded an MIC [5] of 1.5 µM (≈ 0.649 µg/mL).

Work on `Cc1c(CN2CC[Si](C)(C)CC2)cc(-c2ccc(Cl)cc2)n1-c1ccccc1` yielded an MIC [5] of 0.1 µM (≈ 0.0409 µg/mL).

`CSc1ccc(-c2cc(CN3CC[Si](C)(C)CC3)c(C)n2-c2ccc(F)cc2)cc1` showed an MIC [5] of 0.2 µM (≈ 0.0877 µg/mL).

Work on `COc1ccc(-c2cc(CN3CC[Si](C)(C)CC3)c(C)n2-c2ccc(F)cc2)cc1` yielded an MIC [5] of 1.5 µM (≈ 0.634 µg/mL).

`Cc1c(CN2CC[Si](C)(C)CC2)cc(-c2ccc(Cl)cc2)n1-c1ccc(Cl)cc1` showed a fraction unbound at 150 µM [10] of 0.0002, a solubility at 5000 µM [1] of 4.73 µM (≈ 2.1 µg/mL) and a remaining at 1 h, 50 µM [11] of 99.4%. For the same compound, the IC50 at 24 h [12] was greater than 20 µM, the remaining at 0.5 h, 50 µM [3] was 56.7% and the Activity (HEK293) was “Non-Toxic”. For the same compound, the selectivity ratio [13] was greater than 250, the solubility at 5000 µM [4] was 38.8 µM (≈ 17.2 µg/mL) and the MIC [5] was 0.1 µM (≈ 0.0443 µg/mL). It also gave a selectivity ratio [14] greater than 250, a remaining at 0.5 h, 50 µM [6] of 86.3% and a solubility at 5000 µM [7] of 36.7 µM (≈ 16.3 µg/mL). It also gave a solubility at 5000 µM [8] of 39.1 µM (≈ 17.3 µg/mL).

With `COc1ccc(-c2c(CN3CC[Si](C)(C)CC3)cc(C)n2-c2ccc(F)cc2)cc1` the MIC [5] was 7.4 µM (≈ 3.13 µg/mL).

`CCc1ccc(-c2cc(CN3CC[Si](C)(C)CC3)c(C)n2-c2ccc(OC)cc2)cc1` showed an MIC [5] of 0.2 µM (≈ 0.0865 µg/mL).

`NNC(=O)c1ccncc1` [ISONIAZID] gave an MIC [5] of 2.2 µM (≈ 0.302 µg/mL).

Compound `Cc1c(C(=O)NN2CCCCC2)nn(-c2ccc(Cl)cc2Cl)c1-c1ccc(Cl)cc1` [RIMONABANT] has an MIC [9] of 54 µM (≈ 25 µg/mL).
